Results reported in patent US11865128B2, “Aminoglycosides and uses thereof in treating genetic disorders” (Technion Research & Development Foundation Limited, priority 2010, dated 2024).
≈ marks a conversion by molar mass, not a printed value. Read-outs that look alike come from different tables or passages of the source.

Columns and labels:
[1] = test system: nonsense mutation constructs R3X, R245X, Q70X, W1282X, G542X in HEK-293 cells; test: Ex vivo stop codon readthrough assay, p2luc constructs transfected to HEK-293 cells; type: cell-based, human; conditions: ex vivo in HEK-293, all the mutations tested, FIGS. 4, 8-10
Method: For the ex vivo readthrough assays, the constructs harboring the R3X, R245X, Q70X and W1282X mutations were transfected to HEK-293 cells with Lipofectamine 2000 (Invitrogen) and addition of the tested compounds was performed 6 hours post transfection. The cells were harvested following 16 hours of incubation with the tested aminoglycosides. Stop codon readthrough was calculated as previously described (see, Grentzmann, G. et al., RNA, 1998, 4, p. 479).
The constructs were transfected into a human embryonic kidney cell line (HEK-293) and incubated with varying concentrations of NB122, NB123, NB54 and the control drug gentamicin, and the results are presented in FIGS. 4A-D.
As described hereinabove, the constructs of p2luc plasmid harboring the R3X, R245X, Q70X and W1282X mutations were transfected to HEK-293 cells using lipofectamine2000 and the tested compounds were added 6 hours post transfection. Cells were harvested after 16 hours incubation and luciferase activity was determined using the dual luciferase reporter assay system (Promega™). Stop codon readthrough was calculated as described previously, and the results are averages of at least three independent experiments.

[2] = test system: HFF (human foreskin fibroblasts) cells; test: Cell toxicity LC50 in HFF cells; type: cell-based; conditions: Table 2
Method: (§1) In order to ensure suitable cell viability for each of the tested compounds at the concentrations tested, cell toxicity was evaluated for each compound by measuring the half-maximal-lethal concentration value (LC50 values) in HEK-293 and HFF (human foreskin fibroblasts) cells.
(§2) The percentages of cell viability were calculated as the ratio between the numbers of living cells in cultures grown in the presence of the tested compounds, versus cultures grown under the identical protocol but without the tested compound. The results represent averages of at least three independent experiments.
(§3) The half-maximal lethal concentration (LC50) values were obtained from fitting concentration-response curves to the data of at least three independent experiments, using GraFit 5 software.

B. subtilis ATCC6633 = test: Antibacterial activity MIC, double-microdilution; type: cell-based, Bacillus subtilis; conditions: read-out: Antibacterial activity MIC B. subtilis ATCC6633
[3] = biological target: Eukaryotic system (eukaryotic cytoplasmic ribosome); test: Eukaryotic translation inhibition, coupled transcription/translation, luciferase detection; type: biochemical; conditions: for Prokaryotic versus Eukaryotic selectivity IC50^Euk/IC50^Pro: ratio of eukaryotic to prokaryotic translation inhibition IC50
Description: Prokaryotic and eukaryotic translation inhibition was quantified in coupled transcription/translation assays by using active luciferase detection, performed as described hereinabove. […] In all biological tests, all tested aminoglycosides were in their sulfate salt forms. The concentrations reported refer to that of the free amine form of each aminoglycoside.
(§4) In all biological experiments conducted, all tested aminoglycosides were in their sulfate salt forms. The concentrations reported in Table 3 refer to that of the free amine form of each aminoglycoside. Prokaryotic and eukaryotic translation inhibition was quantified in coupled transcription/translation assays as previously described. The half-maximal concentration (IC50) values were obtained from fitting concentration response curves to the data of at least three independent experiments, using GraFit 5 software.

HEK-293 cells = test: Cell toxicity LC50 in HEK-293 cells; type: cell-based; conditions: Table 2
Method: as §1, §2, §3

E. coli R477/100 = test: Antibacterial activity MIC, double-microdilution; type: cell-based, Escherichia coli; conditions: read-out: Antibacterial activity MIC E. coli R477/100
[4] = test system: nonsense mutation constructs R3X, R245X, G542X, W1282X, Q70X, R3381X (PCDH15, CFTR, IDUA, Dystrophin); test: In vitro stop codon readthrough assay, p2Luc dual luciferase, TNT reticulocyte lysate; type: biochemical; conditions: cell-free, mutations tested; comparison in words from FIGS. 2, 3, 5-7
Description: DNA fragments derived from PCDH15, CFTR, Dystrophin and IDUA cDNAs, including the tested nonsense mutation or the corresponding wild type (wt) codon, and four to six upstream and downstream flanking codons were created by annealing following pairs of complementary oligonucleotides:
The fragments were inserted in frame into the polylinker of the p2Luc plasmid between either BamHI and SacI (p.R3X and p.R245X), or SalI and SacI (all the rest) restriction sites.
For the in vitro readthrough assays, the obtained plasm ids, with addition of the tested aminoglycosides were transcribed and translated using the TNT Reticulocyte Lysate Quick Coupled Transcription/Translation System. Luciferase activity was determined after 90 minutes of incubation at 30° C., using the Dual Luciferase Reporter Assay System (Promega™).
Initially, the influence of the chiral C5″-methyl group on readthrough potential was evaluated on the pseudo-trisaccharides NB118 and NB119 by using a dual luciferase reporter assay system as described hereinabove. Briefly, DNA fragments were cloned between BamHI and SacI restriction sites of the p2luc vector and the obtained constructs were transcribed and translated using TNT quick coupled transcription/translation system. The amount of the translated products was evaluated using the dual luciferase reporter assay system and used to calculate the suppression level.

[5] = biological target: Prokaryotic system (prokaryotic ribosome); test: Prokaryotic translation inhibition, coupled transcription/translation, luciferase detection; type: biochemical
Method: Prokaryotic and eukaryotic translation inhibition was quantified in coupled transcription/translation assays by using active luciferase detection, performed as described hereinabove. […] All the experiments were performed in duplicates and analogous results were obtained in three different experiments. In all biological tests, all tested aminoglycosides were in their sulfate salt forms. The concentrations reported refer to that of the free amine form of each aminoglycoside.
as §4, with “software. All the experiments were performed in duplicates and analogous results were obtained in three different experiments.” for “software.”

[6] = Cell toxicity LC50 in HFF cells; type: cell-based; conditions: human, HFF (human foreskin fibroblast) cells, read-out: Cell toxicity LC50 HFF
Method: as §1, §2, §3

[7] = test system: Prokaryotic system (prokaryotic ribosome); conditions: shown previously; cited from earlier work
[8] = Cell toxicity LC50 in HEK-293 cells; type: cell-based; conditions: human, HEK-293 cells, read-out: Cell toxicity LC50 HEK-293
Method: as §1, §2, §3

[9] = Table 2, read-out: Translation Inhibition Eukaryotic System IC50
[10] = Table 3, read-out: Translation Inhibition IC50^Euk
[11] = Table 2, read-out: Translation Inhibition Prokaryotic system IC50
[12] = Table 3, read-out: Translation Inhibition IC50^Pro
[13] = Bacillus subtilis, ATCC6633, Table 2

Row | SMILES | observed efficacy of aminoglycoside-induced readthrough, order [1] | CC50 [2] | MIC (B. subtilis ATCC6633; Table 2) | IC50 [3, 9] | IC50 [3, 10] | Prokaryotic versus Eukaryotic selectivity IC50^Euk/IC50^Pro [3] | CC50 (HEK-293 cells) | MIC (E. coli R477/100; Table 2) | in vitro readthrough activity (stop codon suppression level) [4] | IC50 [5, 11] | IC50 [5, 12] | CC50 ([6]; Table 2) | MIC (B. subtilis ATCC6633; [13]) | weaker inhibitors of prokaryotic translation than gentamicin and paromomycin [7] | CC50 ([8]; Table 2) | also measured
1 | C[C@@H](O)C1O[C@H](O[C@@H]2C(N)C[C@@H](N)C(O)[C@H]2O[C@@H]2O[C@H]([C@@H](C)N)[C@H](O)C2O)C(N)[C@@H](O)[C@@H]1O (stereo partly drawn) [NB125, 6′-(R)-Methyl-5-O-(5-amino-5,6-dideoxy-β-D-allofuranosyl)-paromamine] | NB124>NB125>NB74>gentamicin | 7590 ± 180 µM | 96 µM (≈ 46.3 µg/mL) | 7.96 ± 0.27 µM | 7.96 ± 0.27 µM | 4.3 | 16500 ± 3100 µM | 1536 µM (≈ 741 µg/mL) | smaller comparatively | 1.86 ± 0.173 µM | 1.86 ± 0.173 µM | – | – | – | – | –
2 | C[C@@H](O)C1O[C@H](O[C@@H]2C(N)C[C@@H](NC(=O)[C@@H](O)CCN)[C@@H](O)C2O[C@@H]2O[C@H](CN)[C@H](O)C2O)[C@@H](N)C(O)[C@@H]1O (stereo partly shown) [NB84, reference compound] | NB127 NB128>NB84>gentamicin | – | – | 2.8 ± 0.3 µM | 2.8 ± 0.3 µM | 2.9 | – | – | – | 0.98 ± 0.07 µM | 0.98 ± 0.07 µM | 16300 ± 470 µM | 70 µM (≈ 39.9 µg/mL) | about 10 fold | 5770 ± 680 µM | MIC (E. coli R477/100; Escherichia coli, R477/100, Table 2): 556 µM (≈ 317 µg/mL)
3 | C[C@@H](O)C1O[C@H](O[C@@H]2C(N)C[C@@H](N)[C@@H](O)C2O[C@@H]2O[C@H](CN)[C@H](O)C2O)[C@@H](N)C(O)[C@@H]1O (stereo partly shown) [NB74, reference compound] | NB124>NB125>NB74>gentamicin | – | – | – | – | – | – | – | – | 1.13 ± 0.12 µM | 1.13 ± 0.12 µM | 21300 ± 1720 µM | 42 µM (≈ 19.7 µg/mL) | about 10 fold | 22200 ± 1060 µM | –
4 | C[C@@H](N)[C@H]1O[C@@H](O[C@@H]2[C@@H](O)[C@H](NC(=O)[C@@H](O)CCN)C[C@H](N)[C@H]2O[C@H]2O[C@H]([C@@H](C)O)[C@@H](O)[C@H](O)[C@H]2N)[C@H](O)[C@@H]1O [NB128, 6′-(R)-Methyl-5-O-(5-amino-5,6-dideoxy-β-D-allofuranosyl)-1-N—[(S)-4-amino-2-hydroxy-butanoyl] paromamine] | NB127 NB128>NB84>gentamicin | 2780 ± 110 µM | 96 µM (≈ 56 µg/mL) | 0.89 ± 0.07 µM | 0.89 ± 0.07 µM | 0.5 | 5350 ± 310 µM | 384 µM (≈ 224 µg/mL) | significantly stronger readthrough inducers than the corresponding counterparts | 1.75 ± 0.145 µM | 1.75 ± 0.145 µM | – | – | – | – | –
5 | CC(N)C1OC(OC2C(O)C(NC(=O)C(O)CCN)CC(N)C2OC2OC(C(C)O)C(O)C(O)C2N)C(O)C1O [NB127, 6′-(R)-Methyl-5-O-(5-amino-5,6-dideoxy-α-L-talofuranosyl)-1-N—[(S)-4-amino-2-hydroxy-butanoyl] paromamine] | NB127 NB128>NB84>gentamicin | 6480 ± 260 µM | 192 µM (≈ 112 µg/mL) | 0.73 ± 0.07 µM | 0.73 ± 0.07 µM | 0.4 | 5090 ± 270 µM | 384 µM (≈ 224 µg/mL) | significantly stronger readthrough inducers than the corresponding counterparts | 1.75 ± 0.274 µM | 1.75 ± 0.274 µM | – | – | – | – | –
6 | NC[C@H]1O[C@@H](O[C@@H]2C(O)[C@H](N)CC(N)[C@H]2O[C@H]2OC(CO)[C@@H](O)[C@H](O)C2N)C(O)[C@H]1O (stereo partly shown) [NB30, reference compound] | – | – | – | – | 31 ± 4 µM | 68 | – | – | – | – | 0.46 ± 0.05 µM | – | – | about 10 fold | – | CC50 ([6]; Table 1): 21800 ± 900 µM; MIC (B. subtilis ATCC6633; Bacillus subtilis, ATCC6633, Table 1, free amine concentration, sulfate salts tested): 100 µM; IC50 ([3]; Table 1, read-out: Translation inhibition Eukaryotic System IC50): 31 µM; CC50 ([8]; Table 1): 21400 µM; MIC (E. coli R477/100; Escherichia coli, R477/100, Table 1): 790 µM (≈ 359 µg/mL); IC50 ([5]; Table 1, read-out: Translation inhibition Prokaryotic system IC50): 0.46 ± 0.05 µM
